In patent US5914348A, “Substance FA-70D, process for producing the same, and uses thereof” (Taiho Pharmaceutical Co., Ltd., priority 1996, dated 1999):
Numbered stars: 1 amine (or outer) side, 2 acyl side, 3 side chain; on linkers, the order of the positions; unused ones are H or OH. Square brackets hold non-standard residues; d marks the D form. Peptide text beside a SMILES is read from it. Cit = NC(=O)NCCC[CH](N)C(=O)O; Phe(ol) = N[CH](CO)Cc1ccccc1; CO = O=C([*:1])[*:2]

Assays:
[1] = molecular target: chymotrypsin (Bos taurus, UniProt P00766); assay: Inhibitory activity against chymotrypsin (fluorescence, succinyl-L-leucyl-L-leucyl-L-valyl-L-tyrosine-4-methylcoumaryl-7-amide substrate); type: biochemical
Procedure: (§1) The inhibitory activity against cathepsin L or cathepsin B was assayed by the method of A. J. Barrett et al. [Biochemical Journal, 201, 189-198, 1982]. The chymotrypsin- or trypsin-hibitory activity was assayed in accordance with the methods described in Tsuru, D. and Funatsu, M. (ed.), Seikagaku Jikkenho-Tanpakushitsu Bunkai Koso II [Methods of Biochemistry, Proteolytic Enzymes II], vol. 31, 7-14, 1993.
(§2) The inhibitory activity against chymotrypsin was assayed in the following manner. Thus, 0.1 ml of 100 mM Tris-HCl buffer (pH 7.5), 0.15 ml of water, 0.01 ml of 5 ng/ml chymotrypsin/water, and 0.04 ml of an aqueous solution of the compound of the invention were preincubated at 37° C. for 5 minutes. Then, 0.1 ml of an aqueous solution containing 100 μM succinyl-L-leucyl-L-leucyl-L-valyl-L-tyrosine-4-methylcoumaryl-7-amide was added and the mixture was incubated at 37° C. for 20 minutes. The enzymatic reaction was stopped by adding 0.5 ml of 100 mM sodium acetate buffer (pH 4.3) containing 100 mM sodium monochloroacetate and the intensity of fluorescence (F) was measured at an exciting wavelength of 350 nm and an emission wavelength of 458 nm. As a control, 0.04 ml of water was added in lieu of 0.04 ml of said aqueous solution of the compound of the invention and the intensity of fluorescence (F0) at 458 nm was similarly measured. The enzyme inhibitory activity was calculated by the following formula.
(§3) Enzyme inhibitory activity (%)=F/F0 ×100

[2] = molecular target: T1, trypsin (Bos taurus, UniProt P00760); assay: Inhibitory activity against trypsin (fluorescence, benzoyl-L-leucyl-L-lysyl-arginine-4-methylcoumaryl-7-amide substrate); type: biochemical; conditions: pH 7.5, 37° C., read-out: Enzyme inhibitory activity (%)
T1 sequence (P00760 24-246): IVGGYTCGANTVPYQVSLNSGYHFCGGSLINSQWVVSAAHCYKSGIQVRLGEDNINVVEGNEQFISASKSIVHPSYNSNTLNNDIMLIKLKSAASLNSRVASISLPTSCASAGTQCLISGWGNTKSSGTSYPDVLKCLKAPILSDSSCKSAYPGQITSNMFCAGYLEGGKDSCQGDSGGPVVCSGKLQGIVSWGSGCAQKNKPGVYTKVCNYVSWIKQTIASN
Procedure: as §1, §2, §3
The inhibitory activity against trypsin was measured as follows. Except that trypsin was used in lieu of chymotrypsin at the same concentration and benzoyl-L-leucyl-L-lysyl-arginine-4-methylcoumaryl-7-amide was used in lieu of succinyl-L-leucyl-L-leucyl-L-valyl-L-tyrosine-4-methylcoumaryl-7-amide at the same concentration, the above procedure for assaying the inhibitory activity against chymotrypsin was otherwise repeated and the enzyme inhibitory activity was calculated in the same manner as above.

[3] = molecular target: cathepsin L (Homo sapiens, UniProt P07711); assay: Inhibitory activity against cathepsin L (fluorescence, carbobenzoxy-L-phenylalanyl-L-arginine-4-methylcoumaryl-7-amide substrate); type: biochemical
cathepsin L, sequence (P07711 114-333, species assumed): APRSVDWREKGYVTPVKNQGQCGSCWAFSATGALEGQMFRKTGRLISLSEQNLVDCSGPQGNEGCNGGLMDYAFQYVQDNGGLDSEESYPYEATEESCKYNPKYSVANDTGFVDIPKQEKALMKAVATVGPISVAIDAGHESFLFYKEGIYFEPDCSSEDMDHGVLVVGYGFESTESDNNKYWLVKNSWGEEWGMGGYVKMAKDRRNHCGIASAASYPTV
Procedure: as §1
(§4) The method for assay of inhibitory activity against cathepsin B is as follows. Thus, 0.5 ml of 400 mM sodium phosphate buffer (pH 6.0) containing 8 mM dithiothreitol and 4 mM tetrasodium ethylenediaminetetracetate, 0.8 ml of an enzyme solution containing 5 μM cathepsin B and 0.1% Brij 35 (Wako Pure Chemical Ind.), and 0.2 ml of an aqueous solution of the compound of the invention were preincubated at 40° C. for 10 minutes. Then, 0.5 ml of a 0.1% aqueous solution of dimethyl sulfoxide containing 20 μM carbobenzoxy-L-phenylalanyl-L-arginine-4-methylcoumaryl-7-amide was added and the mixture was incubated at 40° C. for 10 minutes. The enzymatic reaction was then stopped by adding 2.0 ml of 100 mM sodium acetate buffer (pH 4.3) containing 100 mM sodium monochloroacetate. The intensity of fluorescence (F) was determined at an exciting wavelength of 350 nm and an emission wavelength of 458 nm. As a control, 0.2 ml of water was added in lieu of 0.2 ml of said aqueous solution of the compound of the invention and the intensity of fluorescence (F0) at 458 nm was similarly measured. The enzyme inhibitory activity was calculated by means of the following formula.
as §3
The inhibitory activity against cathepsin L was assayed as follows. Thus, except that cathepsin L was used in lieu of cathepsin B at the same concentration and the 400 mM sodium phosphate buffer was adjusted to pH 5.5, the above assay procedure for cathepsin B was otherwise repeated to determine the enzyme inhibitory activity.

[4] = molecular target: cathepsin B (Homo sapiens, UniProt P07858); assay: Inhibitory activity against cathepsin B (fluorescence, carbobenzoxy-L-phenylalanyl-L-arginine-4-methylcoumaryl-7-amide substrate); type: biochemical; conditions: pH 6.0, 40° C., read-out: Enzyme inhibitory activity (%)
Procedure: as §1
as §4, with “Then, 0.5 ml of a 0.1% aqueous solution of dimethyl sulfoxide containing 20 μM carbobenzoxy-L-phenylalanyl-L-arginine-4-methylcoumaryl-7-amide was added and the mixture was incubated at 40° C. for 10 minutes. The enzymatic reaction was then stopped by adding 2.0 ml of 100 mM sodium acetate buffer (pH 4.3) containing 100 mM sodium monochloroacetate.” left out, “formula. […]” for “formula.”

[5] = Solubility; type: physicochemical
[6] = molecular target: T2, papain (Carica papaya, UniProt P00784); assay: Assay of papain inhibitory activity; type: biochemical; conditions: used for identification during purification
T2 sequence (P00784 134-345): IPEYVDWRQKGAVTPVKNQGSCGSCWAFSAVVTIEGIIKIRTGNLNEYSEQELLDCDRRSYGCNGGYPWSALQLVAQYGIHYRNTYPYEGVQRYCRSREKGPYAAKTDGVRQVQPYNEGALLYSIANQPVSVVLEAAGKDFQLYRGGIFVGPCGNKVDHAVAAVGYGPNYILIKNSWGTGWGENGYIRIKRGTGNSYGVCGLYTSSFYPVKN
Procedure: Detection of active fractions containing Substance FA-70D in each stage was carried out by the assay of papain inhibitory activity (Biochemical Journal, 201, 189-198, 1982).
Thus, 0.5 ml of 400 mM sodium phosphate buffer (pH 6.8) containing 8 mM dithiothreitol and 4 mM tetrasodium ethylenediaminetetracetate, 0.8 ml of an enzyme solution containing 5 μM papain and 0.1% Brij 35 (polyoxyethylene (23) lauryl ether) (Wako Pure Chemical Ind.), and 0.2 ml of an aqueous solution containing a sample were preincubated at 40° C. for 10 minutes. Then, 0.5 ml of a 0.1% aqueous solution of dimethyl sulfoxide containing 20 μM carbobenzoxy-L-phenylalanyl-L-arginine-4-methylcoumaryl-7-amide was added and the mixture was incubated at 40° C. for 10 minutes. The enzymatic reaction was stopped by adding 2.0 ml of 100 mM sodium acetate buffer (pH 4.3) containing 100 mM sodium monochloroacetate and the intensity of fluorescence (F) was measured at an exciting wavelength of 350 nm and an emission wavelength of 458 nm. As a control, 0.2 ml of water was added in lieu of 0.2 ml of said aqueous solution of the sample and the intensity of fluorescence (F0) at 458 nm was similarly measured. The enzyme inhibitory activity was calculated by means of the following formula.
as §3

[7] = test system: cathepsin series proteases; assay: Inhibition of cathepsin series proteases; type: biochemical
Procedure: as §1
as §4, with “Then, 0.5 ml of a 0.1% aqueous solution of dimethyl sulfoxide containing 20 μM carbobenzoxy-L-phenylalanyl-L-arginine-4-methylcoumaryl-7-amide was added and the mixture was incubated at 40° C. for 10 minutes. The enzymatic reaction was then stopped by adding 2.0 ml of 100 mM sodium acetate buffer (pH 4.3) containing 100 mM sodium monochloroacetate.” left out, “formula. […]” for “formula.”

CC(C)C(NC(=O)C(CCCNC(N)=O)NC(=O)NC(Cc1ccccc1)C(=O)O)C(=O)NC(CO)Cc1ccccc1 (stereo not drawn) [Substance FA-70D] ({Phe-CO}-[Cit]-Val-[Phe(ol)]; configuration not given here)
inhibits chymotrypsin more strongly than trypsin ([1]; chymotrypsin vs trypsin, Test Example 1): inhibits chymotrypsin more strongly than trypsin | inhibition at 1 µM ([1]; chymotrypsin, FA-70D 10^-6 M, pH 7.5, 37° C., read-out: Enzyme inhibitory activity (%)): 99.9% | inhibition at 0.1 µM ([1]; chymotrypsin, FA-70D 10^-7 M, pH 7.5, 37° C., read-out: Enzyme inhibitory activity (%)): 97.6% | inhibition at 0.01 µM ([1]; chymotrypsin, FA-70D 10^-8 M, pH 7.5, 37° C., read-out: Enzyme inhibitory activity (%)): 70.7% | inhibition at 1 µM ([2]; FA-70D 10^-6 M): 43.3% | inhibition at 0.1 µM ([2]; FA-70D 10^-7 M): 14% | inhibition at 0.01 µM ([2]; FA-70D 10^-8 M): 9.4% | inhibits cathepsin L more strongly than cathepsin B ([3]; cathepsin L vs cathepsin B, Test Example 1): inhibits cathepsin L more strongly than cathepsin B | inhibition at 1 µM ([3]; cathepsin L, FA-70D 10^-6 M, pH 5.5, 40° C., read-out: Enzyme inhibitory activity (%)): 93.5% | inhibition at 0.1 µM ([3]; cathepsin L, FA-70D 10^-7 M, pH 5.5, 40° C., read-out: Enzyme inhibitory activity (%)): 72% | inhibition at 0.01 µM ([3]; cathepsin L, FA-70D 10^-8 M, pH 5.5, 40° C., read-out: Enzyme inhibitory activity (%)): 15.1% | inhibition at 1 µM ([4]; FA-70D 10^-6 M): 85.5% | inhibition at 0.1 µM ([4]; FA-70D 10^-7 M): 23.7% | Solubility ([5]; in chloroform, acetone, ethyl acetate, ether, and hexane): Practically insoluble | Solubility ([5]; in ethanol): slightly soluble | Solubility ([5]; in methanol and dimethylsulfoxide): readily soluble | enzymatic activity of papain inhibited by the substance [6]: inhibited by the substance | inhibit cathepsin series proteases [7]: strongly inhibit
